Data: US10471083B2, “Formulations of aminoglycoside and fosfomycin in combination for treatment of ventilator associated pneumonia (VAP) and ventilator associated tracheal (VAT) bronchitis” (SAVARA INC., priority 2011, dated 2019)
Values after ≈ are worked out from the molar mass of the structure shown.

Experiments:
[1] = parameters: species or system beagle dogs; details: dog, in vivo
Excerpt: Toxicokinetic parameters were estimated using WinNonlin pharmacokinetic software version 5.2.1 (Pharsight Corp.). A non-compartmental approach consistent with the extravascular route of administration was used for parameter estimation. All parameters were generated from individual amikacin and fosfomycin concentrations in plasma from Days 1 and 7.

MRSA = details: data from the 1980's; cited from earlier work
[2] = Aerosol particle size distribution (MMAD) in the dog study; assay type: physicochemical; details: aerosol of the combined formulation, analytical methods
Pseudomonas = details: cited from earlier work
[3] = test system: Stenotrophomonas maltophilia; details: cited from earlier work
Pseudomonas aeruginosa = details: cited from earlier work
pseudomonas isolates = details: most pseudomonas isolates; cited from earlier work

Row | Structure (SMILES) | accumulation following repeat dosing [1] | MIC90 (MRSA) [µg/mL] | particle size distribution (MMAD) [2] [μm] | MIC90 (Pseudomonas) [µg/mL] | MIC90 [3] [µg/mL] | factor of increase of in vitro activity of amikacin by fosfomycin (Pseudomonas aeruginosa) | MIC90 (pseudomonas isolates) [µg/mL]
1 | C[C@@H]1O[C@@H]1P(=O)(O)O [fosfomycin] | no clear indication of accumulation | 32 (≈ 232 µM) | – | – | – | – | –
2 | NCC[C@H](O)C(=O)N[C@@H]1C[C@H](N)[C@@H](O[C@H]2O[C@H](CN)[C@@H](O)[C@H](O)[C@H]2O)[C@H](O)[C@H]1O[C@H]1O[C@H](CO)[C@@H](O)[C@H](N)[C@H]1O [amikacin] | no clear indication of accumulation | – | 2.80 | 32 (≈ 54.6 µM) | > 64 | 64 | –
3 | NC[C@H]1O[C@H](O[C@H]2[C@H](O)[C@@H](O[C@H]3O[C@H](CO)[C@@H](O)[C@H](N)[C@H]3O)[C@H](N)C[C@@H]2N)[C@H](N)C[C@@H]1O [tobramycin] | – | – | – | – | – | – | 64 (≈ 137 µM)
